# Test results from patent US12558400B2, “Method of treatment of soft tissue sarcoma with a peptide comrpising a PCNA interacting motif” (THERAPIM PTY LTD, priority 2020, dated 2026).
# Where no end group is shown, it is not given here.
# Columns and labels:
# [1] = system: patients with advanced solid tumors; assay: Phase I safety and tolerability study of ATX-101 (studies ATX101-01 and -02); format: in vivo
# Protocol: A Phase I, open-label, single arm, safety and tolerability study was conducted (study ATX101-01) which evaluated escalating dose cohorts of ATX-101 (SEQ ID NO: 914) in patients with advanced solid tumors. The study was designed to systematically assess safety and tolerability, and to identify the Maximum Tolerated Dose (MTD) and recommended Phase II dose for ATX-101. Pharmacokinetics and preliminary efficacy (anti-tumor activity) were also assessed.
# If at the end of the 6-week Phase I study (study ATX101-01) the patient's tumor didn't show signs of progression, treatment could be continued in a long-term follow-up study (study ATX101-02) until disease progression or other reasons for treatment discontinuation, e.g. withdrawal of consent.
# Four dose levels (20, 35, 45 and 60 mg/m^2 of body surface area calculated based on the height and weight of patients) of intravenous ATX-101 (net peptide, excluding the mass of the salt component) were tested in the Phase I study (study ATX101-01). ATX-101 was administered via IV infusion over at least 1 hour either using a constant infusion rate or an adaptable infusion rate scheme starting with 5 mg/hr and increasing the infusion flow rate every 30 minutes, as outlined in the infusion rate table below (Table 1). […] Doses of 45 and 60 mg/m^2 were administered in 500 mL.
# Treatment was administered weekly in cycles of 21-day duration, with a single IV infusion of ATX-101 on Day 1, 8 and 15 of each cycle. Dosing of patients occurred weekly for up to two cycles (i.e. 2×21 days=6 weeks).
# Following the initial 6 weeks of treatment in the Phase I study (study ATX101-01), patients could continue the treatment in the long-term follow-up study (study ATX101-02). These patients, that received the same dose regimen as in study −01, were treated for up to 15.6 months.
# Safety: Incidence, severity, and duration of treatment-emergent adverse events (TEAEs) and treatment related TEAEs were assessed according to Common Terminology Criteria for Adverse Events (CTCAE) v4.03.
# [2] = Solubility of the peptide drug substance; format: physicochemical; settings: water and aqueous media; hydrochloride salt
# Description: The product was available as a hydrochloride salt (chloride counter-ion is ionically bound to the basic side chains of the peptide; 18 mol/mol peptide, theoretically; Molecular formula: C158H285N71O29S, 18 HCl; Relative molecular mass: […]. Free base: 3673.3).
substance,measurement,setting,value
Ac-MDRWLVKWKKKRKIRRRRRRRRRRR (N-terminus assumed) [ATX-101],treatment related deaths,"[1]; 22 patients, weekly IV infusion, all dose levels (20-60 mg/m^2)",No treatment related deaths
same,course of infusion-related reactions after repeated doses,[1]; in vivo,did not worsen
same,Dose Limiting Toxicities (DLTs),"[1]; in vivo, iv",no Dose Limiting Toxicities
same,"infusion-related reactions (IRR) Grade 1 or 2, proportion of patients","[1]; in vivo, iv",73%
same,treatment discontinuation due to treatment related toxicity,"[1]; in vivo, iv",no treatment discontinuation due to treatment related toxicity
same,treatment related serious adverse event or severe adverse event,"[1]; in vivo, iv",no treatment related serious adverse event or severe adverse event
same,solubility,[2],freely soluble
